The target of the experiment is HAT p300 (histone acetyltransferase p300) (Homo sapiens, UniProt Q09472). The experiment in a line: HAT activity kit (Biovision K332): inhibition of HAT activity of p300. It is filed as biochemical. The note with it: for IC50: 0.5, 1, 10 or 100 μM; for HAT activity inhibitory effect (HAT p300 activity inhibited): Synthesis Examples diluted to 100 μM. How it is done: Candidates 1 to 67, which are HAT inhibitors manufactured based on the PCAF structure, and HAT-24, HAT-26, and HAT-28 were diluted to 100 μM, and the degree of inhibition of HAT activity of p300 (inhibitory activity) was then determined using a kit for measuring HAT activity (Biovision, Cat No. K332, U.S.A) according to the method provided by the manufacturer. Here, the tissue was treated with C646 (HAT inhibitor) as a positive control.
Sequence of HAT p300 (histone acetyltransferase p300) (Q09472 whole entry): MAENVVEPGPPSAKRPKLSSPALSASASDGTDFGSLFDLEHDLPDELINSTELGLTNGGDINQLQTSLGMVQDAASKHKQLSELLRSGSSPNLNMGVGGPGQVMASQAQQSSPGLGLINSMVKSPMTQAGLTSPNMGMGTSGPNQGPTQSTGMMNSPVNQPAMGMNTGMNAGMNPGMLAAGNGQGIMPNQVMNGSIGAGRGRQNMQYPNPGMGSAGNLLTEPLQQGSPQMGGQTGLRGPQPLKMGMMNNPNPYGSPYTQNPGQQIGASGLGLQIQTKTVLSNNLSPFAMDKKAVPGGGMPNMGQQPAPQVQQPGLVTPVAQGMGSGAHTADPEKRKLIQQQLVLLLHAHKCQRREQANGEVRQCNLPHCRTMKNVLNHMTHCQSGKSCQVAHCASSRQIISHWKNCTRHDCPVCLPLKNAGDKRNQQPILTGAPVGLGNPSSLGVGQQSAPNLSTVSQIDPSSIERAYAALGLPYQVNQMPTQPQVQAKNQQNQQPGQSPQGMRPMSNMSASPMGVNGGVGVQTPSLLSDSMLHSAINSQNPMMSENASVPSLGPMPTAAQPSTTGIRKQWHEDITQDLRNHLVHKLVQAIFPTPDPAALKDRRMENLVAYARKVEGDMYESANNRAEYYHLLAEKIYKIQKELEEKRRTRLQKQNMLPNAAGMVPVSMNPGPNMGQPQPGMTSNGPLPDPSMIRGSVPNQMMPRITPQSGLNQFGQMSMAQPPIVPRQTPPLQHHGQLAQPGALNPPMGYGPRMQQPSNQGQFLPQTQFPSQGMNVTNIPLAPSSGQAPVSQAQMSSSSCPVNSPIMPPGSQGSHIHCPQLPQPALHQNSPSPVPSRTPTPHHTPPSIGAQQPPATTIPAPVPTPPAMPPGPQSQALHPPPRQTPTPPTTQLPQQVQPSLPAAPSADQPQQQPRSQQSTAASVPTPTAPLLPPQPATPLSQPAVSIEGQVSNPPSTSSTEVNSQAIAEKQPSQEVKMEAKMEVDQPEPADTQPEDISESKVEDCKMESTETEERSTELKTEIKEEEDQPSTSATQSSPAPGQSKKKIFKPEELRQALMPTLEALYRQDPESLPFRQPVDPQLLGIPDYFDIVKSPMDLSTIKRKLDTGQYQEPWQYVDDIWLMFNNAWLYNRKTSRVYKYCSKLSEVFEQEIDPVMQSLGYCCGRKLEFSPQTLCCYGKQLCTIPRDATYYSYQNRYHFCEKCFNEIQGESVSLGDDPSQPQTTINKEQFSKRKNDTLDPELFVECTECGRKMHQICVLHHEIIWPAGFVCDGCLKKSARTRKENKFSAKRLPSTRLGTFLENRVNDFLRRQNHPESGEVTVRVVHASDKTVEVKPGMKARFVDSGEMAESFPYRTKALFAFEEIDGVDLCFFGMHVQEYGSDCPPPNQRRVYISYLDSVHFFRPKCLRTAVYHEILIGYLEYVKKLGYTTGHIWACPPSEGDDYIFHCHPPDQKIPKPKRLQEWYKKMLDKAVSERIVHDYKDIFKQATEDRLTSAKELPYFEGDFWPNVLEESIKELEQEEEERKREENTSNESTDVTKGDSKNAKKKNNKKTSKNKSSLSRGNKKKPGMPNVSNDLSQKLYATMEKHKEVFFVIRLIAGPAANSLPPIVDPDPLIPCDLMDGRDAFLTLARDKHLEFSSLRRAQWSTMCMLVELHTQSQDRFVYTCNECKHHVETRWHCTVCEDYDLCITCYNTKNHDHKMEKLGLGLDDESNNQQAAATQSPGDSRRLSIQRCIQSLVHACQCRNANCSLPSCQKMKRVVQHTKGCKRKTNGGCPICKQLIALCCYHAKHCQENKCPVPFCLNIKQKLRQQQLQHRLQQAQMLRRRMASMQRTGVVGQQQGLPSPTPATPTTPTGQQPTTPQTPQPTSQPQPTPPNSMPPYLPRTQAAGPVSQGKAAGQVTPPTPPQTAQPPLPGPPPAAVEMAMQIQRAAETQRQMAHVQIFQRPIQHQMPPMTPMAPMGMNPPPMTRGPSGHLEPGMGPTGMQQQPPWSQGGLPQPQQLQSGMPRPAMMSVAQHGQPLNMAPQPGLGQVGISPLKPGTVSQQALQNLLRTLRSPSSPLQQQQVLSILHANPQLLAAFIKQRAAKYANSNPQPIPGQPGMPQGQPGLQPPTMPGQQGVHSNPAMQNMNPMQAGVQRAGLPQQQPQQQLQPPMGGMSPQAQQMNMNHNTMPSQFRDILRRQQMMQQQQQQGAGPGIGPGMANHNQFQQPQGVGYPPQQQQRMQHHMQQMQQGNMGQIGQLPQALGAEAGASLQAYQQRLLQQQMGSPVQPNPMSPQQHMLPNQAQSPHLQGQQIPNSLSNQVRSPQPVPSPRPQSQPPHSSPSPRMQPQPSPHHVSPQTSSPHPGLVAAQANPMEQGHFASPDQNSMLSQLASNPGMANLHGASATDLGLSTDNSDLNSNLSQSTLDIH
Candidates 1 to 14 having a good HAT activity inhibitory effect in Section were diluted to concentrations of 0.5 μM, 1 μM, 10 μM, and 100 μM. Thereafter, the degree of inhibition of HAT activity was determined in the same manner as in Section.
Each of Synthesis Examples 1 to 24 was diluted to 100 μM, and the degree of inhibition of HAT p300 activity was determined in the same manner as in Section. Here, the tissues were treated with C646 and Candidate 12 (HAT-12) as the control instead of Synthesis Examples 1 to 24.

The record followed here is patent US20230011131A1, “NOVEL COMPOUND FOR INHIBITING HISTONE ACETYLTRANSFERASE P300 AND ANTI-FIBROSIS COMPOSITION COMPRISING SAME” (REFURE LIFE SCIENCE INC., priority 2019, published 2023).

Usually IC50 stands for the point on the concentration scale where inhibition reaches its midpoint. The low end stands for inhibition by little substance, the high end for a need for much substance. For the compound `COc1cc(/C=C/C(=O)c2cccc(C(N)=O)c2)cc(I)c1OCc1cccc(C(N)=O)c1` [Synthesis Example 6, (E)-3-(3-(4-((3-carbamoylbenzyl)oxy)-3-iodo-5-methoxyphenyl)acryloyl) benzamide], the half-inhibitory concentration (IC50) came to 0.87 µM and the “HAT activity inhibitory effect (HAT p300 activity inhibited)” value was ~100%.

Consider `COc1cc(/C=C/C(=O)c2cccc(O)c2)cc(Br)c1OCc1cccc(C(N)=O)c1` [Synthesis Example 8], for which the IC50 is 1.06 µM and the “HAT activity inhibitory effect (HAT p300 activity inhibited)” value was ~100%.
